Source: patent US20250326713A1, “INHIBITORS OF MsbA AS ANTIBIOTICS, PHARMACEUTICAL COMPOSITIONS, AND USES THEREOF” (priority 2022, published 2025)
≈ marks a conversion by molar mass, not a printed value.

Test system: various strains of bacteria
Assay: Antimicrobial potency: bacterial growth inhibition by OD600 (Antibacterial assay 1, MITC95)
Assay type: cell-based, A. baumannii
Conditions: lowest concentration giving >95% growth inhibition, CAMHB, 18-22 h
Method: The concentrations of compounds required to inhibit the growth of various strains of bacteria were determined in an assay that assessed bacterial growth by measuring optical density at 600 nm (OD600). Test articles were dissolved in 100% DMSO and serially diluted two-fold from their maximal concentration in 100% DMSO. Forty-nine μl of bacterial inoculum (at approx. 2×10^5 cfu/mL in CAMHB) were put into wells of an assay plate. One μl of compound or DMSO was transferred from the source plate to the assay plate. The completed assay plates were then incubated at 35+2degC for 18-22 h. Bacterial growth was measured by reading OD600 on a spectrophotometer. Data analysis calculates the lowest concentration of compound which results in >95% growth inhibition (minimum inhibitory threshold concentration 95%, MITC95).

SMILES | MIC (Acinetobacter baumannii, 20 h) [µM] | MIC [µM]
O=C(O)c1cc(OC2CN(Cc3ccc(NS(=O)(=O)N4CCOC(c5ccc(F)cc5)C4)c(C(=O)O)c3)C2)ccc1NS(=O)(=O)CCc1ccc(F)cc1 (centres unmarked) [Compound 84] | 0.0691 (≈ 0.0544 µg/mL) | 
O=C(O)c1cc(CN2CC(Oc3ccc(NS(=O)(=O)c4ccc(-c5ccc(F)cc5)cc4)c(C(=O)O)c3)C2)ccc1NS(=O)(=O)c1ccc(-c2ccc(F)cc2)cc1 [Compound 98] | 0.0692 (≈ 0.0572 µg/mL) | 
O=C(O)Cc1cc(CN2CC(Oc3ccc(NS(=O)(=O)c4cnn(-c5ccc(Cl)cc5)c4)c(CC(=O)O)c3)C2)ccc1NS(=O)(=O)c1cnn(-c2ccc(Cl)cc2)c1 [Compound 1, 2-(5-((1-(3-(carboxymethyl)-4-(1-(4-chlorophenyl)-1H-pyrazole-4-sulfonamido)benzyl)azetidin-3-yl)oxy)-2-(1-(4-chlorophenyl)-1H-pyrazole-4-sulfonamido)phenyl) acetic acid] | 0.277 (≈ 0.24 µg/mL) | 
O=C(O)c1cc(CN[C@H]2C[C@@H](COc3ccc(NS(=O)(=O)c4ccc(-c5ccc(Cl)cc5)s4)c(C(=O)O)c3)C2)ccc1NS(=O)(=O)CCc1ccc(Cl)cc1 [Compound 94] | 0.0086 (≈ 0.00727 µg/mL) | 
O=C(O)c1cc(CN2CC(Oc3ccc(NS(=O)(=O)N4CCOC(c5ccc(F)cc5)C4)c(C(=O)O)c3)C2)ccc1NS(=O)(=O)N1CCOC(c2ccc(F)cc2)C1 (centres unmarked) [Compound 44, 5-((1-(3-carboxy-4-((2-(4-fluorophenyl)morpholine)-4-sulfonamido)benzyl)azetidin-3-yl)oxy)-2-((2-(4-fluorophenyl)morpholine)-4-sulfonamido)benzoic acid] | 0.391 (≈ 0.33 µg/mL) | 
O=C(O)c1cc(CN2CC(Oc3ccc(NS(=O)(=O)c4cnn(-c5ccc(F)cc5)c4)c(C(=O)O)c3)C2)ccc1NS(=O)(=O)CCCc1ccc(Cl)cc1 [Compound 43] | 0.0489 (≈ 0.039 µg/mL) | 
O=C(O)c1cc(OC[C@H]2CC[C@@H](COc3ccc(NS(=O)(=O)c4ccc(-c5ccc(F)cc5)cc4)c(C(=O)O)c3)O2)ccc1NS(=O)(=O)c1ccc(-c2ccc(F)cc2)cc1 [Compound 22] | 0.0489 (≈ 0.0426 µg/mL) | 
O=C(O)c1cc(CN2CC(Oc3ccc(NS(=O)(=O)c4cnn(-c5ccc(Cl)cc5)c4)c(C(=O)O)c3)C2)ccc1NS(=O)(=O)CCCc1ccc(F)cc1 [Compound 42] | 0.0489 (≈ 0.039 µg/mL) | 
O=C(O)c1cc(CNC2CC(CNc3ccc(NS(=O)(=O)c4cnn(-c5ccc(Cl)cc5)c4)c(C(=O)O)c3)C2)ccc1NS(=O)(=O)c1cnn(-c2ccc(F)cc2)c1 (centres unmarked) [Compound 35] | 0.0489 (≈ 0.0415 µg/mL) | 
O=C(O)c1cc(CN2CC(Oc3ccc(NS(=O)(=O)c4cnn(-c5ccc(F)cc5)n4)c(C(=O)O)c3)C2)ccc1NS(=O)(=O)c1cnn(-c2ccc(F)cc2)n1 [Compound 118] | 0.0245 (≈ 0.0198 µg/mL) | 
O=C(O)c1cc(OCC2CCC(COc3ccc(NS(=O)(=O)c4cnn(-c5ccc(Cl)cc5)c4)c(C(=O)O)c3)O2)ccc1NS(=O)(=O)c1cnn(-c2ccc(Cl)cc2)c1 (centres unmarked) [Compound 19, 5-((5-((3-Carboxy-4-((1-(4-chlorophenyl)-1H-pyrazole)-4-sulfonamido)-phenoxy)methyl)tetrahydrofuran-2-yl)methoxy)-2-((1-(4-chlorophenyl)-1H-pyrazole)-4-sulfonamido)benzoic acid] | 0.0245 (≈ 0.0217 µg/mL) | 
O=C(O)c1cc(CN2CC(Oc3ccc(NS(=O)(=O)c4ccc(-c5ccc(Cl)cc5)cc4)c(C(=O)O)c3)C2)ccc1NS(=O)(=O)c1ccc(OC(F)F)cc1 [Compound 103] | 0.0245 (≈ 0.0199 µg/mL) | 
O=C(O)c1cc(OC[C@H]2C[C@@H](NCc3ccc(NS(=O)(=O)N4CCOC(c5ccc(F)cc5)C4)c(C(=O)O)c3)C2)ccc1NS(=O)(=O)c1cnn(-c2ccc(Cl)cc2)c1 (some centres unmarked) [Compound 89] | < 0.00306 | 
O=C(O)c1cc(CN2CC(Oc3ccc(NS(=O)(=O)c4cnn(-c5ccc(Cl)cc5)c4)c(C(=O)O)c3)C2)ccc1NS(=O)(=O)c1cnn(-c2ccc(Cl)cc2)c1 [Compound 117] | 0.0489 (≈ 0.041 µg/mL) | 
O=C(O)c1cc(NCC2CC(NCc3ccc(NS(=O)(=O)N4CCOC(c5ccc(F)cc5)C4)c(C(=O)O)c3)C2)ccc1NS(=O)(=O)c1cnn(-c2ccc(F)cc2)c1 (centres unmarked) [Compound 36] | 0.0489 (≈ 0.0417 µg/mL) | 
O=C(O)c1cc(CN[C@H]2C[C@@H](NCc3ccc(NS(=O)(=O)c4cnn(-c5ccc(Cl)cc5)c4)c(C(=O)O)c3)C2)ccc1NS(=O)(=O)c1cnn(-c2ccc(Cl)cc2)c1 [Compound 48, 5-((((1s, 3s)-3-((3-carboxy-4-((1-(4-chlorophenyl)-1H-pyrazole)-4-sulfonamido)benzyl)amino)cyclobutyl)amino)methyl)-2-((1-(4-chlorophenyl)-1H-pyrazole)-4-sulfonamido)benzoic acid] | 0.321 (≈ 0.278 µg/mL) | 
O=C(O)c1cc(CN[C@H]2C[C@@H](COc3ccc(NS(=O)(=O)c4cnc(-c5ccc(Cl)cc5)s4)c(C(=O)O)c3)C2)ccc1NS(=O)(=O)CCc1ccc(F)cc1 [Compound 90] | 0.00865 (≈ 0.00717 µg/mL) | 
O=C(O)c1cc(CN2CC(Oc3ccc(NS(=O)(=O)c4ccc(-c5cccc(Cl)c5)cc4)c(C(=O)O)c3)C2)ccc1NS(=O)(=O)CCc1ccc(Cl)cc1 [Compound 101] | 0.0245 (≈ 0.0199 µg/mL) | 
O=C(CCCC(=O)c1ccc(F)cc1)Nc1ccc(OC2CN(Cc3ccc(NS(=O)(=O)c4cnn(-c5ccc(Cl)cc5)c4)c(C(=O)O)c3)C2)cc1C(=O)O [Compound 75] | 0.277 (≈ 0.219 µg/mL) | 

SMILES | MIC (Acinetobacter baumannii, 20 h) [µM] | MIC [µM]
O=C(O)c1cc(OC[C@H]2C[C@@H](NCc3ccc(NS(=O)(=O)N4CC(Oc5ccc(F)cc5)C4)c(C(=O)O)c3)C2)ccc1NS(=O)(=O)c1cnc(-c2ccc(Cl)cc2)s1 [Compound 96] | 0.0122 (≈ 0.0106 µg/mL) | 
O=C(O)c1cc(CN2CC(Oc3ccc(NS(=O)(=O)c4ccc(-c5ccc(F)cc5)cc4)c(C(=O)O)c3)C2)ccc1NS(=O)(=O)c1cnn(-c2ccc(F)cc2)c1 [Compound 100] | 0.0489 (≈ 0.0399 µg/mL) | 
O=C(O)c1cc(COC2CC(OCc3ccc(NS(=O)(=O)c4cnn(-c5ccc(F)cc5)c4)c(C(=O)O)c3)C2)ccc1NS(=O)(=O)c1cnn(-c2ccc(F)cc2)c1 (centres unmarked) [Compound 13] |  | 0.196 (≈ 0.164 µg/mL)
O=C(O)c1cc(CN[C@H]2C[C@@H](COc3ccc(NS(=O)(=O)c4cnc(-c5ccc(Cl)cc5)s4)c(C(=O)O)c3)C2)ccc1NS(=O)(=O)CCc1ccc(Cl)cc1 [Compound 93] | 0.00611 (≈ 0.00517 µg/mL) | 
O=C(CCCc1ccc(Cl)cc1)Nc1ccc(OC2CN(Cc3ccc(NS(=O)(=O)c4cnn(-c5ccc(Cl)cc5)c4)c(C(=O)O)c3)C2)cc1C(=O)O [Compound 69] | 0.0245 (≈ 0.0191 µg/mL) | 
O=C(O)c1cc(OC[C@H]2C[C@@H](NCc3ccc(NS(=O)(=O)N4CCOC(c5ccc(F)cc5)C4)c(C(=O)O)c3)C2)ccc1NS(=O)(=O)c1cnc(-c2ccc(F)cc2)s1 (some centres unmarked) [Compound 92] | 0.00611 (≈ 0.00532 µg/mL) | 
CC1(Oc2ccc(NS(=O)(=O)N3CCOC(c4ccc(F)cc4)C3)c(C(=O)O)c2)CN(Cc2ccc(NS(=O)(=O)N3CCOC(c4ccc(F)cc4)C3)c(C(=O)O)c2)C1 (centres unmarked) [Compound 45] | 0.0978 (≈ 0.0839 µg/mL) | 
O=C(O)c1cc(NCC2CC(NCc3ccc(NS(=O)(=O)N4CC(Oc5ccc(F)cc5)C4)c(C(=O)O)c3)C2)ccc1NS(=O)(=O)c1cnn(-c2ccc(F)cc2)c1 (centres unmarked) [Compound 28] | 0.196 (≈ 0.164 µg/mL) | 
O=C(Cc1cccc(Cl)c1)Nc1ccc(OC2CN(Cc3ccc(NS(=O)(=O)c4cc(-c5ccc(F)cc5)ns4)c(C(=O)O)c3)C2)cc1C(=O)O [Compound 67] | 0.0245 (≈ 0.0184 µg/mL) | 
O=C(NCc1ccc(Cl)cc1)C(=O)Nc1ccc(OC2CN(Cc3ccc(NS(=O)(=O)N4CCOC(c5ccc(Cl)cc5)C4)c(C(=O)O)c3)C2)cc1C(=O)O (centres unmarked) [Compound 60] | 0.0122 (≈ 0.00991 µg/mL) | 
O=C(O)c1cc(CN2CC(Oc3ccc(NS(=O)(=O)c4cnn(-c5ccc(Cl)cc5)c4)c(C(=O)O)c3)C2)ccc1NS(=O)(=O)CCCCc1ccc(Cl)cc1 [Compound 41] | 0.0122 (≈ 0.0101 µg/mL) | 
O=C(NCc1ccc(Cl)cc1)C(=O)Nc1ccc(OC2CN(Cc3ccc(NS(=O)(=O)c4cc(-c5ccc(F)cc5)ns4)c(C(=O)O)c3)C2)cc1C(=O)O [Compound 59] | 0.0245 (≈ 0.0195 µg/mL) | 
O=C(O)c1cc(CN[C@H]2C[C@@H](NCc3ccc(NS(=O)(=O)c4cnn(-c5ccc(F)cc5)c4)c(C(=O)O)c3)C2)ccc1NS(=O)(=O)c1cnn(-c2ccc(F)cc2)c1 [Compound 49] | 1.56 (≈ 1.3 µg/mL) | 
O=C(NCc1ccc(Cl)cc1)C(=O)Nc1ccc(CN2CC(Oc3ccc(NS(=O)(=O)N4CCOC(c5ccc(F)cc5)C4)c(C(=O)O)c3)C2)cc1C(=O)O (centres unmarked) [Compound 56] | 0.0978 (≈ 0.0779 µg/mL) | 
O=C(O)c1cc(CN2CC(Oc3ccc(NS(=O)(=O)CCc4ccc(Cl)cc4)c(C(=O)O)c3)C2)ccc1NS(=O)(=O)CCc1ccc(Cl)cc1 [Compound 79] | 0.0978 (≈ 0.0746 µg/mL) | 
O=C(O)c1cc(CNC2CC(CNc3ccc(NS(=O)(=O)c4cnn(-c5ccc(F)cc5)c4)c(C(=O)O)c3)C2)ccc1NS(=O)(=O)c1cnn(-c2ccc(Cl)cc2)c1 (centres unmarked) [Compound 29] | 0.0489 (≈ 0.0415 µg/mL) | 
O=C(O)c1cc(OC[C@H]2CC[C@@H](COc3ccc(NS(=O)(=O)CCc4ccc(Cl)cc4)c(C(=O)O)c3)O2)ccc1NS(=O)(=O)CCc1ccc(Cl)cc1 [Compound 21] | 0.0489 (≈ 0.0395 µg/mL) | 
O=C(NCc1ccc(Cl)cc1)C(=O)Nc1ccc(OC2CN(Cc3ccc(NS(=O)(=O)c4ccc(-c5ccc(Cl)cc5)cc4)c(C(=O)O)c3)C2)cc1C(=O)O [Compound 54, 5-((1-(3-carboxy-4-((4′-chloro-[1,1′-biphenyl])-4-sulfonamido)benzyl)azetidin-3-yl)oxy)-2-(2-((4-chlorobenzyl)amino)-2-oxoacetamido)benzoic acid] | 0.0346 (≈ 0.0278 µg/mL) | 
Cn1nc(-c2ccc(F)cc2)cc1S(=O)(=O)Nc1ccc(CNC2CC(CNc3ccc(NS(=O)(=O)c4cnn(-c5ccc(F)cc5)c4)c(C(=O)O)c3)C2)cc1C(=O)O (centres unmarked) [Compound 33] | 0.0489 (≈ 0.0414 µg/mL) | 
